Measured values: patent US8546440B2, “Substituted bicyclic imidazole derivatives as gamma secretase modulators” (Janssen Pharmaceuticals, Inc., priority 2008, dated 2013)

Columns and labels:
Aβ42 [1] = test: Demonstration of in vivo efficacy: Aβ42 lowering in brain after single oral dose (Table 13); conditions: mouse brain soluble fraction, ELISA, mean, compared to untreated animals
Source text: (§1) To determine whether acute administration of an Aβ42 lowering agent would reduce Aβ42 levels in vivo, non-transgenic rodents, e.g. mice or rats were used. Alternatively, two to three month old Tg2576 mice expressing APP695 containing the “Swedish” variant can be used or a transgenic mouse model developed by Dr. Fred Van Leuven (K. U. Leuven, Belgium) and co-workers, with neuron-specific expression of a clinical mutant of the human amyloid precursor protein [V717I] (Moechars et al., 1999 J. Biol. Chem. 274, 6483). Young transgenic mice have high levels of Aβ in the brain but no detectable Aβ deposition. At approximately 6-8 months of age, the transgenic mice start to display spontaneous, progressive accumulation of β-amyloid (Aβ) in the brain, eventually resulting in amyloid plaques within the subiculum, hippocampus and cortex. Animals treated with the Aβ42 lowering agent were examined and compared to those untreated or treated with vehicle and brain levels of soluble Aβ42 and total Aβ would be quantitated by standard techniques, for example, using ELISA. Treatment periods varied from hours to days and were adjusted based on the results of the Aβ42 lowering once a time course of onset of effect could be established.
(§2) A typical protocol for measuring Aβ42 lowering in vivo is shown but it is only one of many variations that could be used to optimize the levels of detectable Aβ. For example, Aβ42 lowering compounds were formulated in 20% of Captisol® (a sulfobutyl ether of β-cyclodextrin) in water or 20% hydroxypropyl β cyclodextrin. The Aβ42 lowering agents were administered as a single oral dose or by any acceptable route of administration to overnight fasted animals. After four hours, the animals were sacrificed and Aβ42 levels were analysed.
(§3) Blood was collected by decapitation and exsanguinations in EDTA-treated collection tubes. Blood was centrifuged at 1900 g for 10 minutes at 4° C. and the plasma recovered and flash frozen for later analysis. The brain was removed from the cranium and hindbrain. The cerebellum was removed and the left and right hemisphere were separated. The left hemisphere was stored at −18° C. for quantitative analysis of test compound levels. The right hemisphere was rinsed with phosphate-buffered saline (PBS) buffer and immediately frozen on dry ice and stored at −80° C. until homogenization for biochemical assays.
(§4) Mouse brains were resuspended in 10 volumes of 0.4% DEA (diethylamine)/50 mM NaCl pH 10 (for non-transgenic animals) or 0.1% 3-[3-cholamidopropyl)-dimethyl-ammonio]-1-propanesulfonate (CHAPS) in tris buffered saline (TBS) (for transgenic animals) containing protease inhibitors (Roche-11873580001 or 04693159001) per gram of tissue, e.g. for 0.158 g brain, add 1.58 ml of 0.4% DEA. All samples were sonicated for 30 seconds on ice at 20% power output (pulse mode). Homogenates were centrifuged at 221.300×g for 50 min. The resulting high speed supernatants were then transferred to fresh tubes and were optionally further purified before the next step. A portion of the supernatant was neutralized with 10% 0.5 M Tris-HCl and this was used to quantify Aβtotal.
The obtained supernatants were purified with Water Oasis HLB reverse phase columns (Waters Corp., Milford, Mass.) to remove non-specific immunoreactive material from the brain lysates prior subsequent Aβ detection. Using a vacuum manifold, all solutions were passed through the columns at a rate of approximately 1 ml per minute, so the vacuum pressure was adjusted accordingly throughout the procedure. Columns were preconditioned with 1 ml of 100% MeOH, before equilibration with 1 ml of H2O. Non-neutralized brain lysates were loaded onto the columns. The loaded samples were then washed twice with the first wash performed with 1 ml of 5% MeOH, and the second wash with 1 ml of 30% MeOH. Finally, the Aβ was eluted from the columns and into 100×30 mm glass tubes, with a solution of 90% MeOH with 2% NH4OH. […]

Aβtotal [2] = test: Screening for γ-secretase-modulating activity, Method 1: Aβtotal sandwich ELISA in supernatant of SKNBE2 cells carrying APP 695 wild type (Tables 12a, 12b); assay type: cell-based
Outline: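 Aβtotal in conditioned medium was measured by 6E10/biotin-4G8 sandwich ELISA with fluorogenic peroxidase read-out. Cells were wild-type APP 695 SKNBE2, treated 18 hours in glutamine-supplemented Ultraculture. IC50 came from 4-parameter fits of inhibition, or percent of control, against concentration; toxicity was checked by WST-1.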

Aβ42 [3] = test: Screening for γ-secretase-modulating activity, Method 1: Aβ42 sandwich ELISA in supernatant of SKNBE2 cells carrying APP 695 wild type (Tables 12a, 12b); assay type: cell-based
Outline: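 Aβ42 levels in the supernatant were measured by ELISA with 450 nm colorimetric read-out after 18 h compound exposure of wild-type APP695 SKNBE2 cells plated one day earlier. IC50 was fitted with a 4-parameter model, either with fixed top/bottom and a Hill slope of 1, or as averaged values from % of vehicle control; WST-1 was used to flag cytotoxicity.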

Aβtotal [4] = test: Demonstration of in vivo efficacy: Aβtotal lowering in brain after single oral dose (Table 13); conditions: mouse brain soluble fraction, mean, compared to untreated animals
Source text: as §1, §2, §3
as §4, with “Aβtotal. […]” for “Aβtotal.”
In this model at least 20% Aβ42 lowering compared to untreated animals would be advantageous.

[5] = Homo sapiens, Method 1, Table 12a, SKNBE2 cells carrying APP 695 wild type, compounds 18 hours, ELISA, curve top and bottom fixed to 100 and 0, hill slope 1
[6] = Homo sapiens, Table 12b, Method 1, SKNBE2 cells carrying APP 695 wild type, cell supernatant ELISA, averaged IC50 values
[7] = Homo sapiens, Table 12b, Method 1, SKNBE2 cells carrying APP 695 wild type, cell supernatant ELISA, averaged IC50 values, percentage of control vs log concentration
[8] = Method 1, Table 12a, SKNBE2 cells carrying APP 695 wild type, compounds 18 hours, ELISA, curve top and bottom fixed to 100 and 0, hill slope 1
[9] = Table 12b, Method 1, SKNBE2 cells carrying APP 695 wild type, cell supernatant ELISA, averaged IC50 values
[10] = Table 12b, Method 1, SKNBE2 cells carrying APP 695 wild type, cell supernatant ELISA, averaged IC50 values, percentage of control vs log concentration

IC50 (Aβtotal [2]; [5]) [nM] | IC50 (Aβtotal [2]; [6]) [nM] | IC50 (Aβ42 [3]; [5]) [nM] | IC50 (Aβ42 [3]; [7]) [nM] | IC50 (Aβtotal [2]; [8]) [nM] | IC50 (Aβtotal [2]; [9]) [nM] | IC50 (Aβ42 [3]; [8]) [nM] | IC50 (Aβ42 [3]; [10]) [nM] | SMILES | Aβ42 (% Ctrl)_Mean (Aβ42 [1]) [% Ctrl] | Aβtotal (% Ctrl)_Mean (Aβtotal [4]) [% Ctrl]
> 1000 | 12600 | 30 | 148 |  |  |  |  | COc1cc(Nc2cccn3cc(Cc4ccc(F)cc4)nc23)ccc1-n1cnc(C)c1 [Compound 3] | 56 | 95
> 1000 | > 3020 | 37 | 36 |  |  |  |  | COc1cccc(-c2nc3c(Nc4ccc(-n5cncn5)c(OC)c4)cccn3c2C)c1 [Compound 7] | 68 | 105
> 20000 | > 20000 | 541 | 562 |  |  |  |  | COc1cc(Nc2cccn3c(-c4ccc(F)cc4)cnc23)ccc1-n1cnc(C)c1 [Compound 8] | 88 | 96
 |  |  |  | > 3000 | > 3020 | 54 | 51 | CCCc1nc2c(Nc3ccc(-n4cnc(C)c4)c(OC)c3)cccn2c1CC [Compound 10] | 67 | 104
> 10000 | > 10000 | 25 | 25 |  |  |  |  | COc1cc(Nc2cccn3c(C)c(-c4ccccc4F)nc23)ccc1-n1cnc(C)c1 [Compound 18] | 73 | 101
> 3000 | > 3020 | 11 | 11 |  |  |  |  | COc1cc(Nc2cccn3c(C)c(-c4ccc(F)cc4F)nc23)ccc1-n1cnc(C)c1 [Compound 26] | 75 | 94
> 5000 | > 5010 | 114 | 105 |  |  |  |  | COc1ccccc1-c1cn2cccc(Nc3ccc(-n4cnc(C)c4)c(OC)c3)c2n1 [Compound 32] | 81 | 113
> 3000 | > 3020 | 9 | 9 |  |  |  |  | COc1cccc(-c2nc3c(Nc4ccc(-n5cnc(C)c5)c(OC)c4)cccn3c2C)c1 [Compound 34] | 63 | 100
> 3000 | > 3020 | 75 | 68 |  |  |  |  | CCN(CC)c1ccc(-c2cn3cccc(Nc4ccc(-n5cnc(C)c5)c(OC)c4)c3n2)cc1 [Compound 39] | 82 | 108
> 3000 | > 3020 | 62 | 56 |  |  |  |  | COc1cc(Nc2cccn3cc(-c4ccc(N5CCOCC5)cc4)nc23)ccc1-n1cnc(C)c1 [Compound 40] | 80 | 99
> 3000 | > 3020 | 10 | 10 |  |  |  |  | COc1cc(Nc2cccn3cc(-c4ccc(F)cc4C)nc23)ccc1-n1cnc(C)c1 [Compound 52] | 66 | 91
 | > 3020 |  | 123 |  |  |  |  | Cc1ncn(-c2ccc(Nc3cccn4cc(-c5cc(C(F)(F)F)ccc5C)nc34)cc2F)n1 [Compound 74] | 95 | 102
 |  |  |  |  | > 10000 |  | 355 | Cc1ncn(-c2ccc(Nc3cccn4c(C)c(-c5ccccc5Cl)nc34)nc2)n1 [Compound 83] | 89 | 104
 |  |  |  |  | > 10000 |  | 117 | Cc1ncn(-c2ccc(Nc3cccn4cc(-c5ccccc5C)nc34)cn2)n1 [Compound 86] | 86 | 96
 |  |  |  |  | > 10000 |  | 25 | Cc1ncn(-c2ccc(Nc3cccn4c(C)c(-c5ccccc5Cl)nc34)cn2)n1 [Compound 87] | 86 | 101
 | > 3020 |  | 115 |  |  |  |  | COc1ccc(C)c(-c2cn3cccc(Nc4ccc(-n5cnc(C)n5)c(F)c4)c3n2)c1 [Compound 94] | 96 | 101
 |  |  |  |  | > 3020 |  | 32 | Cc1ncn(-c2ccc(Nc3cccn4cc(-c5ccc(F)cc5C)nc34)cn2)n1 [Compound 98] | 84 | 97
